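Interpolation was linear, between the two tested concentrations surrounding the appropriate level; five concentrations were tested over 48 hours in 96-well plates. GI50 marks 50% less growth.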 Activity calls are given as the source filed them. Cut-off read from the data, not from the text of the source: active = GI50 up to about 1.1 µM and inactive = higher.
How the values were obtained:
Test in all cases: NCI tumour cell line growth inhibition, 48 h
HL-60 = test system: HL-60
NCI-H522 = test system: NCI-H522
COLO 205 = test system: COLO 205
A549 = test system: A549
NCI/ADR-RES = test system: NCI/ADR-RES
SNB-19 = test system: SNB-19
786-0 = test system: 786-0
UACC-62 = test system: UACC-62
MDA-MB-435 = test system: MDA-MB-435
SK-MEL-5 = test system: SK-MEL-5
M14 = test system: M14
SK-MEL-28 = test system: SK-MEL-28
Hs-578T = test system: Hs-578T
OVCAR-5 = test system: OVCAR-5
Malme-3M = test system: Malme-3M
UACC-257 = test system: UACC-257
OVCAR-8 = test system: OVCAR-8
MDA-MB-231 = test system: MDA-MB-231
A498 = test system: A498
PC-3 = test system: PC-3
SN12C = test system: SN12C
MOLT-4 = test system: MOLT-4
TK-10 = test system: TK-10
OVCAR-3 = test system: OVCAR-3
HCT-116 = test system: HCT-116
IGROV-1 = test system: IGROV-1
ACHN = test system: ACHN
EKVX = test system: EKVX
NCI-H226 = test system: NCI-H226
CCRF-CEM = test system: CCRF-CEM
OVCAR-4 = test system: OVCAR-4
LOX IMVI = test system: LOX IMVI
MCF7 = test system: MCF7
HCT-15 = test system: HCT-15
DU-145 = test system: DU-145
CAKI-1 = test system: CAKI-1
SF-268 = test system: SF-268
SW-620 = test system: SW-620
SK-OV-3 = test system: SK-OV-3
SK-MEL-2 = test system: SK-MEL-2
HOP-92 = test system: HOP-92
UO-31 = test system: UO-31
K562 = test system: K562
HOP-62 = test system: HOP-62
NCI-H460 = test system: NCI-H460
SF-295 = test system: SF-295
HT-29 = test system: HT-29
NCI-H23 = test system: NCI-H23
KM12 = test system: KM12
U-251 = test system: U-251
MDA-N = test system: MDA-N
RXF 393 = test system: RXF 393
BT-549 = test system: BT-549
T47D = test system: T47D
HCC 2998 = test system: HCC 2998
SF-539 = test system: SF-539
RPMI-8226 = test system: RPMI-8226
SNB-75 = test system: SNB-75

With `NC12CC3CC4C1CC1CC2C(C3)C4(N)C1` the GI50 (HL-60) was > 100 µM (inactive), the GI50 (NCI-H522) was > 100 µM (inactive) and the GI50 (COLO 205) was > 100 µM (inactive). For the same compound, the GI50 (A549) was > 100 µM (inactive), the GI50 (NCI/ADR-RES) was > 100 µM (inactive) and the GI50 (SNB-19) was > 100 µM (inactive). The GI50 (786-0) was > 100 µM (inactive), the GI50 (UACC-62) was > 100 µM (inactive) and the GI50 (MDA-MB-435) was > 100 µM (inactive). The GI50 (SK-MEL-5) was > 100 µM (inactive), the GI50 (M14) was > 100 µM (inactive) and the GI50 (SK-MEL-28) was > 100 µM (inactive). The GI50 (Hs-578T) was > 100 µM (inactive), the GI50 (OVCAR-5) was > 100 µM (inactive) and the GI50 (Malme-3M) was > 100 µM (inactive). For the same compound, the GI50 (UACC-257) was > 100 µM (inactive), the GI50 (OVCAR-8) was > 100 µM (inactive) and the GI50 (MDA-MB-231) was > 100 µM (inactive). For the same compound, the GI50 (A498) was > 100 µM (inactive), the GI50 (PC-3) was > 100 µM (inactive) and the GI50 (SN12C) was > 100 µM (inactive). The GI50 (MOLT-4) was > 100 µM (inactive), the GI50 (TK-10) was 50.7 µM (inactive) and the GI50 (OVCAR-3) was > 100 µM (inactive). The GI50 (HCT-116) was > 100 µM (inactive), the GI50 (IGROV-1) was > 100 µM (inactive) and the GI50 (ACHN) was > 100 µM (inactive). For the same compound, the GI50 (EKVX) was > 100 µM (inactive), the GI50 (NCI-H226) was > 100 µM (inactive) and the GI50 (CCRF-CEM) was > 100 µM (inactive). The GI50 (OVCAR-4) was > 100 µM (inactive), the GI50 (LOX IMVI) was > 100 µM (inactive) and the GI50 (MCF7) was > 100 µM (inactive). The GI50 (HCT-15) was over 100 µM, the GI50 (DU-145) was > 100 µM (inactive) and the GI50 (CAKI-1) was > 100 µM (inactive). The GI50 (SF-268) was > 100 µM (inactive), the GI50 (SW-620) was > 100 µM (inactive) and the GI50 (SK-OV-3) was > 100 µM (inactive). For the same compound, the GI50 (SK-MEL-2) was > 100 µM (inactive), the GI50 (HOP-92) was > 100 µM (inactive) and the GI50 (UO-31) was > 100 µM (inactive). For the same compound, the GI50 (K562) was > 100 µM (inactive), the GI50 (HOP-62) was > 100 µM (inactive) and the GI50 (NCI-H460) was > 100 µM (inactive). For the same compound, the GI50 (SF-295) was > 100 µM (inactive), the GI50 (HT-29) was > 100 µM (inactive) and the GI50 (NCI-H23) was > 100 µM (inactive). For the same compound, the GI50 (KM12) was > 100 µM (inactive), the GI50 (U-251) was > 100 µM (inactive) and the GI50 (MDA-N) was > 100 µM (inactive). The GI50 (RXF 393) was > 100 µM (inactive), the GI50 (BT-549) was > 100 µM (inactive) and the GI50 (T47D) was > 100 µM (inactive).
For `N#Cc1cnn2c1n[n+]([O-])c1ccc(Cl)cc12`, the GI50 (HL-60) was 2.86 µM (inactive), the GI50 (NCI-H522) was 1.75 µM (inactive) and the GI50 (COLO 205) was 16.6 µM (inactive). The GI50 (A549) was 14.1 µM (inactive), the GI50 (NCI/ADR-RES) was 9.68 µM (inactive) and the GI50 (SNB-19) was 3.11 µM (inactive). The GI50 (786-0) was 27.4 µM (inactive), the GI50 (UACC-62) was 4.49 µM (inactive) and the GI50 (MDA-MB-435) was 11.9 µM (inactive). The GI50 (HCC 2998) was 1.92 µM (inactive), the GI50 (SK-MEL-5) was 12.4 µM (inactive) and the GI50 (M14) was 8.13 µM (inactive). For the same compound, the GI50 (SK-MEL-28) was 13.2 µM (inactive), the GI50 (Hs-578T) was 5.3 µM (inactive) and the GI50 (OVCAR-5) was > 45.1 µM (inactive). For the same compound, the GI50 (Malme-3M) was 7.69 µM (inactive), the GI50 (UACC-257) was 9.35 µM (inactive) and the GI50 (OVCAR-8) was 11.5 µM (inactive). The GI50 (MDA-MB-231) was 15.1 µM (inactive), the GI50 (A498) was 19.3 µM (inactive) and the GI50 (PC-3) was 14.7 µM (inactive). The GI50 (SN12C) was 7.91 µM (inactive), the GI50 (MOLT-4) was 7.31 µM (inactive) and the GI50 (SF-539) was 18.2 µM (inactive). The GI50 (TK-10) was 57.8 µM (inactive), the GI50 (OVCAR-3) was 2.96 µM (inactive) and the GI50 (HCT-116) was 8.75 µM (inactive). For the same compound, the GI50 (IGROV-1) was 4.14 µM (inactive), the GI50 (ACHN) was 5.79 µM (inactive) and the GI50 (EKVX) was 2.9 µM (inactive). For the same compound, the GI50 (NCI-H226) was 18.6 µM (inactive), the GI50 (CCRF-CEM) was 1.75 µM (inactive) and the GI50 (OVCAR-4) was 2.23 µM (inactive). For the same compound, the GI50 (LOX IMVI) was 3.98 µM (inactive), the GI50 (RPMI-8226) was 23.8 µM (inactive) and the GI50 (MCF7) was 28.7 µM (inactive). For the same compound, the GI50 (HCT-15) was 1.97 µM, the GI50 (DU-145) was 14.9 µM (inactive) and the GI50 (CAKI-1) was 1.26 µM (inactive). The GI50 (SF-268) was 9.73 µM (inactive), the GI50 (SW-620) was 9.14 µM (inactive) and the GI50 (SK-OV-3) was 8.61 µM (inactive). The GI50 (SK-MEL-2) was 7.31 µM (inactive), the GI50 (HOP-92) was 2.19 µM (inactive) and the GI50 (SNB-75) was 6.9 µM (inactive). The GI50 (UO-31) was 13.5 µM (inactive), the GI50 (K562) was 1.71 µM (inactive) and the GI50 (HOP-62) was 15.2 µM (inactive). For the same compound, the GI50 (NCI-H460) was 11.4 µM (inactive), the GI50 (SF-295) was 14.7 µM (inactive) and the GI50 (HT-29) was 7.98 µM (inactive). For the same compound, the GI50 (NCI-H23) was 5.7 µM (inactive), the GI50 (KM12) was 25.6 µM (inactive) and the GI50 (U-251) was 17 µM (inactive). For the same compound, the GI50 (MDA-N) was 8.65 µM (inactive), the GI50 (RXF 393) was 15 µM (inactive) and the GI50 (BT-549) was 12.8 µM (inactive). The GI50 (T47D) was 17.3 µM (inactive).
